US10456407B2, “Combination therapy for treating cancer” (Epizyme, Inc., priority 2015, dated 2019)

Tested on: WSU-DLCL2 cells
Test: RT2 Glucocorticoid signaling PCR array, WSU-DLCL2 (WSU) cell line (Table 4c)
Assay type: cell-based

C[C@]12C=CC(=O)C=C1CC[C@@H]1[C@@H]2[C@@H](O)C[C@@]2(C)[C@H]1CC[C@]2(O)C(=O)CO [Prednisolone, prednisolone]
Ct Values, ACTB (gene ACTB): 14.572 | ΔCT (B2M), ACTB (gene ACTB): −4.573 | Ct Values, ADARB1 (gene ADARB1): 26.108 | ΔCT (B2M), ADARB1 (gene ADARB1): 6.963 | ΔΔCT, ADARB1 (gene ADARB1, compared to DMSO): 0.097 | Ct Values, AFF1 (gene AFF1): 27.334 | ΔCT (B2M), AFF1 (gene AFF1): 8.189 | ΔΔCT, AFF1 (gene AFF1, compared to DMSO): −0.464 | Ct Values, AK2 (gene AK2): 20.433 | ΔCT (B2M), AK2 (gene AK2): 1.288 | ΔΔCT, AK2 (gene AK2, compared to DMSO): 0.094 | Ct Values, AMPD3 (gene AMPD3): 27.943 | ΔCT (B2M), AMPD3 (gene AMPD3): 8.798 | ΔΔCT, AMPD3 (gene AMPD3, compared to DMSO): −0.219 | Ct Values, ANGPTL4 (gene ANGPTL4): 30.810 | ΔCT (B2M), ANGPTL4 (gene ANGPTL4): 11.665 | ΔΔCT, ANGPTL4 (gene ANGPTL4, compared to DMSO): −0.329 | Ct Values, ANXA4 (gene ANXA4): 27.406 | ΔCT (B2M), ANXA4 (gene ANXA4): 8.261 | ΔΔCT, ANXA4 (gene ANXA4, compared to DMSO): −0.025 | Ct Values, AQP1 (gene AQP1): 33.595 | ΔCT (B2M), AQP1 (gene AQP1): 14.450 | Ct Values, ARID68 (gene ARID68): 26.721 | ΔCT (B2M), ARID68 (gene ARID68): 7.576 | ΔΔCT, ARID68 (gene ARID68, compared to DMSO): 0.722 | Ct Values, ASPH (gene ASPH): 21.939 | ΔCT (B2M), ASPH (gene ASPH): 2.794 | ΔΔCT, ASPH (gene ASPH, compared to DMSO): −0.041 | Ct Values, ATF4 (gene ATF4): 19.659 | ΔCT (B2M), ATF4 (gene ATF4): 0.514 | ΔΔCT, ATF4 (gene ATF4, compared to DMSO): 0.090 | Ct Values, B2M (gene B2M (normaliser)): 19.145 | ΔCT (B2M), B2M (gene B2M (normaliser)): 0.000 | Ct Values, BCL6 (gene BCL6): 20.898 | ΔCT (B2M), BCL6 (gene BCL6): 1.753 | ΔΔCT, BCL6 (gene BCL6, compared to DMSO): 0.249 | Ct Values, CEBPA (gene CEBPA): 27.838 | ΔCT (B2M), CEBPA (gene CEBPA): 8.693 | ΔΔCT, CEBPA (gene CEBPA, compared to DMSO): −0.295 | Ct Values, CEBPB (gene CEBPB): 25.775 | ΔCT (B2M), CEBPB (gene CEBPB): 6.630 | ΔΔCT, CEBPB (gene CEBPB, compared to DMSO): 0.814 | Ct Values, COL4A2 (gene COL4A2): 34.328 | ΔCT (B2M), COL4A2 (gene COL4A2): 15.183 | Ct Values, CREB1 (gene CREB1): 22.732 | ΔCT (B2M), CREB1 (gene CREB1): 3.587 | ΔΔCT, CREB1 (gene CREB1, compared to DMSO): −0.133 | Ct Values, CREB3 (gene CREB3): 24.551 | ΔCT (B2M), CREB3 (gene CREB3): 5.406 | ΔΔCT, CREB3 (gene CREB3, compared to DMSO): −0.453 | Ct Values, CREB3L4 (gene CREB3L4): 24.437 | ΔCT (B2M), CREB3L4 (gene CREB3L4): 5.292 | ΔΔCT, CREB3L4 (gene CREB3L4, compared to DMSO): −0.330 | Ct Values, CYB561 (gene CYB561): 32.971 | ΔCT (B2M), CYB561 (gene CYB561): 13.826 | ΔΔCT, CYB561 (gene CYB561, compared to DMSO): −3.598 | Ct Values, DDIT4 (gene DDIT4): 22.252 | ΔCT (B2M), DDIT4 (gene DDIT4): 3.107 | ΔΔCT, DDIT4 (gene DDIT4, compared to DMSO): −1.672 | Ct Values, DUSP1 (gene DUSP1): 25.828 | ΔCT (B2M), DUSP1 (gene DUSP1): 6.683 | ΔΔCT, DUSP1 (gene DUSP1, compared to DMSO): 0.454 | Ct Values, EDN1 (gene EDN1): 30.019 | ΔCT (B2M), EDN1 (gene EDN1): 11.674 | Ct Values, EHD3 (gene EHD3): 27.724 | ΔCT (B2M), EHD3 (gene EHD3): 8.579 | ΔΔCT, EHD3 (gene EHD3, compared to DMSO): −1.645 | Ct Values, FK8PS (gene FK8PS): 21.321 | ΔCT (B2M), FK8PS (gene FK8PS): 2.176 | ΔΔCT, FK8PS (gene FK8PS, compared to DMSO): −1.247 | Ct Values, FOSL2 (gene FOSL2): 33.647 | ΔCT (B2M), FOSL2 (gene FOSL2): 14.502 | ΔΔCT, FOSL2 (gene FOSL2, compared to DMSO): 2.843 | Ct Values, GAPDH (gene GAPDH): 16.349 | ΔCT (B2M), GAPDH (gene GAPDH): −2.796 | Ct Values, GDPD1 (gene GDPD1): 28.235 | ΔCT (B2M), GDPD1 (gene GDPD1): 9.090 | ΔΔCT, GDPD1 (gene GDPD1, compared to DMSO): 0.169 | Ct Values, GHRHR (gene GHRHR): 37.739 | ΔCT (B2M), GHRHR (gene GHRHR): 18.644 | ΔΔCT, GHRHR (gene GHRHR, compared to DMSO): 3.458 | Ct Values, GLUL (gene GLUL): 31.475 | ΔCT (B2M), GLUL (gene GLUL): 12.330 | Ct Values, GOT1 (gene GOT1): 22.841 | ΔCT (B2M), GOT1 (gene GOT1): 3.696 | ΔΔCT, GOT1 (gene GOT1, compared to DMSO): 0.262 | Ct Values, H6PD (gene H6PD): 26.197 | ΔCT (B2M), H6PD (gene H6PD): 7.052 | ΔΔCT, H6PD (gene H6PD, compared to DMSO): 0.142 | Ct Values, HNRPLL (gene HNRPLL): 24.750 | ΔCT (B2M), HNRPLL (gene HNRPLL): 5.605 | ΔΔCT, HNRPLL (gene HNRPLL, compared to DMSO): 1.026 | Ct Values, HPRT1 (gene HPRT1): 21.361 | ΔCT (B2M), HPRT1 (gene HPRT1): 2.216 | Ct Values, IL1RN (gene IL1RN): 33.599 | ΔCT (B2M), IL1RN (gene IL1RN): 14.454 | ΔΔCT, IL1RN (gene IL1RN, compared to DMSO): 1.298 | Ct Values, IL10 (gene IL10): 34.306 | ΔCT (B2M), IL10 (gene IL10): 15.161 | Ct Values, KLF9 (gene KLF9): 30.105 | ΔCT (B2M), KLF9 (gene KLF9): 10.960 | ΔΔCT, KLF9 (gene KLF9, compared to DMSO): −0.431 | Ct Values, KLF13 (gene KLF13): 23.792 | ΔCT (B2M), KLF13 (gene KLF13): 4.647 | ΔΔCT, KLF13 (gene KLF13, compared to DMSO): −0.442 | Ct Values, LOX (gene LOX): 34.511 | ΔCT (B2M), LOX (gene LOX): 15.366 | ΔΔCT, LOX (gene LOX, compared to DMSO): 0.550 | Ct Values, MERTK (gene MERTK): 32.524
